Test results published in publication PMC4322365, “A Ligand-observed Mass Spectrometry Approach Integrated into the Fragment Based Lead Discovery Pipeline” (Scientific Reports, 2015).
Values joined by “and” are separate entries in the source; they are usually repeats but may differ in a detail not shown here. Identical values can stand only once. Like-named read-outs stand apart in the source and are kept apart here.

Legend:
[1] = target: T1, HCV RNA polymerase NS5B (Hepatitis C virus genotype 1b, UniProt P26663); test: Ligand-observed MS primary screen of the 384-fragment mixture (ultrafiltration LC/MS); assay type: binding; settings: for S/N in the 1st screen: 384 fragments each 25 μM, NS5B 50 μM, two experimental replicates separated by a slash, S/N > 10 indicates positive hit
T1 construct: NS5B with a C-terminal 10-His tag was expressed in E. coli; 10-His (C); made in house; host or cells: E. coli
Protocol: A two-stage fragment screening strategy based on the ligand-observed MS analysis was devised that involved a primary screen of 384 fragment as a whole followed by a secondary independent screen of fragment cocktails of less complexity. In the primary screen, a mixture of all 384 fragments was incubated with NS5B protein before the fragment-bound complexes were separated from excessive free fragments using ultrafiltration. […] Fragments dissociated from the target using 90% methanol in deionized water were subjected to LC-MS analysis and those showing MS intensity substantially higher than the negative control (protein-free incubation) were considered positive hits (Figure 1A). Although in our previous assay development we justified an S/N ratio of 2 to be the threshold for positive binding, here we raised the S/N threshold to 10 so as to retain the upmost strong binders given that low-affinity fragments are more inclined to nonspecific adsorption. Impressively, the high selectivity of high-resolution MS (HRMS) analysis enabled rapid screening of the 384-fragment mixture within 20-min analytical time, generating 20 preliminary hits with S/N above 10 (Figure 1B, full data sets in Table S1). It is noted that 20 compounds (5%) in this library are not amenable to our analysis, probably due to the limited sensitivity of the mass spectrometer used in this study or the intrinsically low ionization efficiency of these compounds. Nevertheless, these undetectable fragments were still included in the screening cocktail to maximize the complexity of multiple ligand interactions during incubation. To the best of our knowledge, such a high capacity in mixture screening has never been shown before for fragment libraries, and we anticipate the throughput can be easily boosted to screening >1000 fragments within half an hour using a state-of-the-art mass spectrometer.
(§1) In the primary screening, a mixture of 384 fragments (each at a final concentration of 25 μM) and NS5B at 50 μM was prepared in the binding buffer of 20 mM MES (pH 6.5), 300 mM NaCl and 10% glycerol, and incubated for 40 min at 25°C. All fragments of the library were either purchased from Sigma or synthesized in our laboratory, and their structural diversity was summarized in Figure S4. The mixture was then filtered through an ultrafiltration membrane (50 KD MW cut-off) by centrifugation at 13000 g for 10 min at […]. The protein complexes bound with different fragments were washed twice with 10 mM ammonium acetate (pH 6.5) followed by centrifugation to remove the unbound fragments. The resulting solution of the complexes was transferred to a new centrifugal tube, and the ligands were dissociated from NS5B with 90% methanol in deionized water. The released ligands were then separated from the denatured protein by centrifugation at 13000 g for 10 min at 20°C. The supernatant containing the ligands was evaporated by a speed vacuum, reconstituted in 80% methanol, and analyzed by LC/MS. The protein-free control was prepared by using the binding buffer substitute for NS5B during incubation and it underwent the same process as the NS5B incubated sample. In the secondary screen, 384 fragments were divided into 7 cocktails, each consisting of 50 fragments except for the seventh cocktail of 84 fragments. Each cocktail was then incubated with NS5B in the binding buffer at the same final concentration as in the primary screen. […] Ultrafiltration and complex dissociation were performed as described earlier to obtain fragment ligands. Samples were all prepared in duplicate and analyzed separately.
Aliquots of reconstituted ultrafiltrates were analyzed on a Waters Synapt G1 high-dfinition mass spectrometer (Milford, MA) equipped with a Waters Acquity UPLC system. UPLC separation was carried out on a Waters Acquity BEH C18 column (2.1 mm × 50 mm, 1.7 μm) at a flow rate of 200 μL/min, with the mobile phases of water/0.1% formic acid (A) and acetonitrile/0.1% formic acid (B). […]

[2] = target: T1, HCV RNA polymerase NS5B; test: biochemical; assay type: binding; settings: for Binding degree (fraction of fragment ligands over total fragment in incubation) / S/N in the validation assay: 12-hit mixture; for Binding degree (fraction of fragment ligands over total fragment in incubation): P/L 2:1, 1:1, 1:2, theoretical value for about 1 mM affinity; for S/N in the validation assay: two replicates separated by a slash, S/N > 10 positive, ND: not detected by MS analysis; for MS S/N: Figure 2B, S/N factors from two independent experiments, legend says validation assay; for LE (ligand efficiency): derived from Kd at P/L 1:1 and heavy atom count
Protocol: Binding degree of each fragment represented by the fraction of fragment ligands over the total amount of fragments during incubation reflects the relative order of binding strengths.
In order to determine the dissociation constant of each fragment ligand, we prepared calibration curves for the MS responses of ten fragments in a mixture (Figure S1) and measured the recovery rate of each fragment (Table S3), which were used to derive the actual concentrations of fragments bound to the target. Kd values were then calculated based on the measured concentrations of fragment ligands dissociated from the target (Table S3). […] Ligand efficiency (LE) values were then derived from Kd's as a measure to justify which fragments to further optimize and elaborate in the FBLD pipeline[46][47] (Figure 2A). […] SPR was then implemented for Kd determination for these fragment hits.
as §1, with “All” for “In the primary screening, a mixture of 384 fragments (each at a final concentration of 25 μM) and NS5B at 50 μM was prepared in the binding buffer of 20 mM MES (pH 6.5), 300 mM NaCl and 10% glycerol, and incubated for 40 min at 25°C. All”, “In the secondary screen, 384 fragments were divided into 7 cocktails, each consisting of 50 fragments except for the seventh cocktail of 84 fragments.” left out

[3] = P/L = 1:1, protein 25 μM, estimated from MS-measured bound ligand concentration, read-out: Kd
[4] = P/L = 1:2, protein 25 μM, read-out: Kd
[5] = P/L = 2:1, protein 25 μM, read-out: Kd
[6] = Kd, P/L = 1:1, protein 25 μM, estimated from MS-measured bound ligand concentration

T1 sequence (P26663 2420-3010): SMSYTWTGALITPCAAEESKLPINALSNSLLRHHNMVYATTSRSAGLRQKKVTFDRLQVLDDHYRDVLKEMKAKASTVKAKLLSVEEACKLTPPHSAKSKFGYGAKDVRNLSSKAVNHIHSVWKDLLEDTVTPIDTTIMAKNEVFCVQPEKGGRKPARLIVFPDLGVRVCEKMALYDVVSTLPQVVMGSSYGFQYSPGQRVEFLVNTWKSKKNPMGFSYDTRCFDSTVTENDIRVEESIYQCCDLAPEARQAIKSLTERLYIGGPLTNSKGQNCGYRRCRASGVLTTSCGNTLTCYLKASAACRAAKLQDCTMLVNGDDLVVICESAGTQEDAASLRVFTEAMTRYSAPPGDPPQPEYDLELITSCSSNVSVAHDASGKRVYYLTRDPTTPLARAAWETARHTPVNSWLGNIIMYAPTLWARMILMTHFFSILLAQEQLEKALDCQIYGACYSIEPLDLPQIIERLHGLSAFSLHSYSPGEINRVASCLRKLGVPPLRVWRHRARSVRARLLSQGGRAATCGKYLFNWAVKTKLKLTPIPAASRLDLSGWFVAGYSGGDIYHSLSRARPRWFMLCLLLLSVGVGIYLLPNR

Cn1c(=O)cc(O)c2ccccc21 [Fragment 130]
S/N in the 1st screen [1]: 93.1 and 102.3 | Binding ([1]; Figure 1A workflow example): + (Positive fragment binding is indicated by its S/N ratio > 10) | S/N ([1]; Figure 1A workflow example): 93 | Binding degree (fraction of fragment ligands over total fragment in incubation) [2]: ~2.4% | S/N in the validation assay [2]: 378.0 and 376.0 | MS S/N [2]: 48 and 49 | Kd [2, 3]: 1.19 ± 0.08 mM | Kd [2, 4]: 1.37 ± 0.04 mM | Kd [2, 5]: 0.95 ± 0.08 mM | LE (ligand efficiency) [2]: 0.30

Cc1cc(N)n(-c2ccccc2)n1 [Fragment 131]
S/N in the 1st screen [1]: 45.7 and 39.3 | S/N in the validation assay [2]: 56.0 and 46.0 | MS S/N [2]: 23 and 19 | Kd [2, 3]: 13.4 ± 1.98 mM | Kd [2, 4]: 7.29 ± 0.19 mM | Kd [2, 5]: 12.7 ± 2.03 mM | LE (ligand efficiency) [2]: 0.20

N#CCc1ccc(O)cc1 [Fragment 114]
S/N in the 1st screen [1]: 17.9 and 20.9 | Binding degree (fraction of fragment ligands over total fragment in incubation) [2]: ~2.4% | S/N in the validation assay [2]: 983.0 and 1198.0 | MS S/N [2]: 103 and 91 | Kd [2, 6]: 1.01 ± 0.06 mM | Kd ([2]; Kd, P/L = 1:2, protein 25 μM): 1.2 mM | Kd ([2]; Kd, P/L = 2:1, protein 25 μM): 1.13 ± 0.25 mM | LE (ligand efficiency) [2]: 0.40

O=C(O)c1ccc(C(F)(F)F)cc1 [Fragment 204]
S/N in the 1st screen [1]: 13.4 and 11.6 | S/N in the validation assay [2]: 21.0 and 23.0 | MS S/N [2]: 22 and 20 | Kd [2, 3]: 4.04 ± 0.34 mM | Kd [2, 4]: 5.27 mM | Kd [2, 5]: 3.78 ± 0.35 mM | LE (ligand efficiency) [2]: 0.25

Cc1nc2ccccc2nc1C [Fragment 339]
S/N in the 1st screen [1]: 241.4 and 259.8 | S/N in the validation assay [2]: 172.0 and 223.0 | MS S/N [2]: 66 and 62 | Kd [2, 6]: 10.2 ± 0.45 mM | Kd ([2]; Kd, P/L = 1:2, protein 25 μM): 8.95 ± 2.03 mM | Kd ([2]; Kd, P/L = 2:1, protein 25 μM): 11.2 ± 1.45 mM | LE (ligand efficiency) [2]: 0.22

N#CC(c1ccccc1)N1CCOCC1 (stereo not drawn) [Fragment 328]
S/N in the 1st screen [1]: 124.6 and 138.4 | S/N in the validation assay [2]: 170.0 and 155.0 | MS S/N [2]: 17 and 16 | Kd [2, 6]: 20 mM | Kd ([2]; Kd, P/L = 1:2, protein 25 μM): 26.4 ± 7.92 mM | Kd ([2]; Kd, P/L = 2:1, protein 25 μM): 23.5 ± 2.65 mM | LE (ligand efficiency) [2]: 0.14

Oc1ccc(SC(F)(F)F)cc1 [Fragment 237]
S/N in the 1st screen [1]: 1027 and 1179 | S/N in the validation assay [2]: 212.0 and 196.0 | MS S/N [2]: 29 and 36 | Kd [2, 3]: 5.64 ± 0.06 mM | Kd [2, 4]: 6.45 ± 1.67 mM | Kd [2, 5]: 5.19 ± 0.46 mM | LE (ligand efficiency) [2]: 0.25

Oc1ccc(F)c(Cl)c1 [Fragment 85]
S/N in the 1st screen [1]: 27.9 and 29.7 | S/N in the validation assay [2]: 60.0 and 53.0 | MS S/N [2]: 79 and 86 | Kd [2, 3]: 5.67 ± 0.34 mM | Kd [2, 4]: 6.8 ± 0.99 mM | Kd [2, 5]: 6.2 ± 0.51 mM | LE (ligand efficiency) [2]: 0.33

Nc1ccc(C(F)(F)F)cn1 [Fragment 162]
S/N in the 1st screen [1]: 2714 and 3280 | Binding ([1]; Figure 1A workflow example): + (Positive fragment binding is indicated by its S/N ratio > 10) | S/N in the validation assay [2]: 466.0 and 513.0 | MS S/N [2]: 20 and 17 | Kd [2, 3]: 8.96 ± 2.49 mM | Kd [2, 4]: 9.53 ± 0.26 mM | Kd [2, 5]: 10.2 ± 1.3 mM | LE (ligand efficiency) [2]: 0.25

Cc1ccc2oc(=O)ccc2c1 [Fragment 117]
S/N in the 1st screen [1]: 55.6 and 46.8 | S/N in the validation assay [2]: 111.0 and 122.0 | MS S/N [2]: 34 and 40 | Kd [2, 3]: 9.31 ± 0.23 mM | Kd [2, 4]: 9.18 ± 2.75 mM | Kd [2, 5]: 8.96 ± 0.84 mM | LE (ligand efficiency) [2]: 0.22
